Measurements from the Kinase Knowledgebase extract (Sharma et al. 2016).

Biological target: MAPK14 (human) (UniProt Q16539)
Experiment: Inhibition of MAPK14 Kinase Activity

Chain of MAPK14 (human) (Q16539 whole entry, looked up): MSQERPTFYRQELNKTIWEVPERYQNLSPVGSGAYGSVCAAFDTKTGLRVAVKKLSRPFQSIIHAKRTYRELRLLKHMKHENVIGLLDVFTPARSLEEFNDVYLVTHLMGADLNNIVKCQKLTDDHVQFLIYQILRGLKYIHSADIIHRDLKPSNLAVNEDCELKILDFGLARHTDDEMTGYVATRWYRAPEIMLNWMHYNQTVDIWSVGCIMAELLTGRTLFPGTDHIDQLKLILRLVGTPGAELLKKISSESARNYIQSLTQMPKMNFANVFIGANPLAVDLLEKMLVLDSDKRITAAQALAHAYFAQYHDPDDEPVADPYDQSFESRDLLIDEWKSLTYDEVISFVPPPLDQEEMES

IC50: ≤ 1000 nM
SMILES: CON(C)C(=O)c1sc2c(ccc(=O)n2-c2ccc(N(C)C)cc2)c1Nc1ccccc1
